Measurements: US8192962B2, “Processes for detecting toxic substances” (Daikin Industries, Ltd., priority 2001, dated 2012)

Test system: Transport facilitation protein genes
Experiment: DNA chip mRNA expression in yeast, transport facilitation protein genes (Table 5)
Format: cell-based, Saccharomyces cerevisiae S288C
In short: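 Ratios compare mRNA levels in stressed and control S. cerevisiae. Each toxicant was applied for two hours to log-phase cultures at 25° C. at a sub-lethal, growth-inhibiting level; fluorescent cDNA (Cy3- or Cy5-dUTP) was hybridized to a genome-wide yeast chip for over 12 h at 65° C.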

Measured: The level of expressed mRNA in the presence of chemical substance/The level of expressed mRNA in the absence of chemical substance

CCCCCCCCCCCCc1ccc(S(=O)(=O)[O-])cc1.[Na+] [(17), sodium dodecylbenzosulfonate]
1.6: yeast gene YDR497C
1.8: yeast gene YBR052C
0.9: yeast gene YBR298C | yeast gene YCR024C-A | yeast gene YDL128W | yeast gene YDR270W | yeast gene YGR082W
0.7: yeast gene YBL099W | yeast gene YEL063C | yeast gene YEL065W | yeast gene YGR055W | yeast gene YGR065C | yeast gene YGR138C
1.7: yeast gene YCR098C | yeast gene YFL054C | yeast gene YGR197C
2.4: yeast gene YGL006W
1.3: yeast gene YBR295W | yeast gene YDR038C | yeast gene YDR345C | yeast gene YGL104C
1.5: yeast gene YDL198C
1.0: yeast gene YBL030C | yeast gene YBR293W | yeast gene YBR294W | yeast gene YDL245C | yeast gene YDR342C | yeast gene YEL027W
1.1: yeast gene YBR068C | yeast gene YBR132C | yeast gene YDL210W | yeast gene YDR039C | yeast gene YDR298C | yeast gene YDR343C | yeast gene YFL041W | yeast gene YGL008C
0.6: yeast gene YCL025C | yeast gene YGL255W
1.2: yeast gene YBR207W | yeast gene YDR387C | yeast gene YER053C
0.8: yeast gene YBR127C | yeast gene YFL011W | yeast gene YFL050C | yeast gene YGR096W | yeast gene YGR191W
1.4: yeast gene YCL038C | yeast gene YCR037C | yeast gene YDR086C | yeast gene YGL167C
